Data on six compounds can be found in patent US7476687B2, “Substituted furo[2,3-g]indazoles for the treatment of glaucoma” (Alcon, Inc., priority 2003, dated 2009).

In data set [1] the test system is Conscious Cynomolgus Monkeys. Description: IOP Response in Conscious Cynomolgus Monkeys. The conditions noted are these: right eye. The class given is in vivo, cynomolgus monkey. The protocol:
IOP was determined with an Alcon Pneumatonometer after light corneal anesthesia with 0.1% proparacaine. Eyes were washed with saline after each measurement. After a baseline IOP measurement, test compound was instilled in one 30 μL aliquot to the right eyes only of nine cynomolgus monkeys. Vehicle was instilled in the right eyes of six additional animals. Subsequent IOP measurements were taken at 1, 3, and 6 hours.

Data set [2] deals with T1, 5HT2A(rat) (Rattus norvegicus, UniProt P14842). Description: 5HT2 Functional Assay: [Ca2+]i Mobilization (FLIPR, A7r5 cells). The class given is cell-based. The settings on record: for EC50: [Ca2+]i mobilization, rat vascular smooth muscle cells A7r5; for Emax: percentage of maximum 5-HT-induced response, A7r5 cells. Further details: endogenous in cells; host or cells: A7r5 rat vascular smooth muscle cells. The protocol: The receptor-mediated mobilization on intracellular calcium ([Ca^2+]i) was studied using the Fluorescence Imaging Plate Reader (FLIPR) instrument. Rat vascular smooth muscle cells, A7r5, were grown in a normal media of DMEM/10% FBS and 10 μg/mL gentamycin. Confluent cell monolayers were trypsinized, pelleted, and re-suspended in normal media. Cells were seeded in a 50 μL volume at a density of 20,000 cells/well in a black wall, 96-well tissue culture plate and grown for 2 days.
On the day of the experiment, one vial of FLIPR Calcium Assay Kit dye was re-suspended in 50 mL of a FLIPR buffer consisting of Hank's Balanced Salt Solution (HBSS), 20 mM HEPES, and 2.5 mM probenecid, pH 7.4. Cells were loaded with the calcium-sensitive dye by addition of an equal volume (50 μL) to each well of the 96-well plate and incubated with dye for 1 h at 23° C.
Compounds were diluted 1:50 in 20% DMSO/20% Ethanol. For “hit” screening, compounds were further diluted 1:10 in FLIPR buffer and tested at a final concentration of 10 μM.
The compound plate and cell plate were placed in the FLIPR instrument. At the beginning of an experimental run, a signal test was performed to check the basal fluorescence signal from the dye-loaded cells and the uniformity of the signal across the plate. The basal fluorescence was adjusted between 8000-12000 counts by modifying the exposure time, the camera F-stop, or the laser power. Instrument settings for a typical assay were the following: laser power 0.3-0.6 W, camera F-stop F/2, and exposure time 0.4 sec. An aliquot (25 μL) of the test compound was added to the existing 100 μL dye-loaded cells at a dispensing speed of 50 μL/sec. Fluorescence data were collected in real-time at 1.0 sec intervals for the first 60 secs and at 6.0 sec intervals for an additional 120 secs.

Data set [3] has as its target T1, 5HT2A(rat). Description: 5-HT2 Receptor Binding Assay ([125I]DOI competition, cerebral cortex homogenates). Further details: Aliquots of post mortem rat or human cerebral cortex homogenates (400 μL) dispersed in 50 mM TrisHCl buffer; from tissue; host or cells: post mortem rat cerebral cortex homogenate. The conditions noted are these: inhibition of [125I]DOI binding. The protocol:
5-HT2 Receptor Binding Assay
Aliquots of post mortem rat or human cerebral cortex homogenates (400 μL) dispersed in 50 mM TrisHCl buffer (pH 7.4) are incubated with [^125I]DOI (80 pM final) in the absence or presence of methiothepin (10 μM final) to define total and non-specific binding, respectively, in a total volume of 0.5 mL. The assay mixture is incubated for 1 hour at 23° C. in polypropylene tubes and the assays terminated by rapid vacuum filtration over Whatman GF/B glass fiber filters previously soaked in 0.3% polyethyleneimine using ice-cold buffer. Test compounds (at different concentrations) are substituted for methiothepin. Filter-bound radioactivity is determined by scintillation spectrometry on a beta counter. The data are analyzed using a non-linear, iterative curve-fitting computer program [Trends Pharmacol. Sci., 16, 413 (1995)] to determine the compound affinity parameter. The concentration of the compound needed to inhibit the [^125I]DOI binding by 50% of the maximum is termed the IC50 or Ki value.

Where [4] appears, read: 1 hour after dose, 300 μg topical.
Setting [5] is: 3 hours after dose, 300 μg topical.
The mark [6] stands for this setting: 6 hours after dose, 300 μg topical.

T1 sequence (P14842 whole entry): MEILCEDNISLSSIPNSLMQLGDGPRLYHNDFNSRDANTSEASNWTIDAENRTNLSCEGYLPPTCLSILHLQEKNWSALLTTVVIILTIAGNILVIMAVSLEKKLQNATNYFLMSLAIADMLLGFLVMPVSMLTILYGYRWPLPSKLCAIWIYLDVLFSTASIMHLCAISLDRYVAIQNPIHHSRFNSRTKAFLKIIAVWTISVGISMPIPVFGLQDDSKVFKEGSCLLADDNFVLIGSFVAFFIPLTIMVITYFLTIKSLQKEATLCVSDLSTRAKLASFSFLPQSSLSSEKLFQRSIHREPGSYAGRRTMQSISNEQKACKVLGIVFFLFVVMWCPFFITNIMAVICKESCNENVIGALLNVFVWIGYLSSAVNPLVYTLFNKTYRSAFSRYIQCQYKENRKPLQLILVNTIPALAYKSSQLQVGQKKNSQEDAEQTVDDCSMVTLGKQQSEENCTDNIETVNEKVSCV

As to `COc1cc(C[C@@H](C)N)c(OC)cc1I` [(R)-DOI, reference compound], the “Percent IOP Reduction ± SEM” value in data set [1] (1 hour after dose, 100 μg topical) is reported as 11 ± 5%; in data set [1] (3 hours after dose, 100 μg topical), 25 ± 3%; in data set [1] (6 hours after dose, 100 μg topical), 34 ± 5%.
For `C[C@H](N)Cn1ncc2ccc3oc(C(N)=O)cc3c21` [Example 3, 1-((S)-2-Aminopropyl)-1H-furo[2,3-g]indazole-7-carboxylic acid amide], the “Percent IOP Reduction ± SEM” value in data set [1] (setting [4]) was 9 ± 4%; in data set [1] (setting [5]) it was 23 ± 4%; in data set [1] (setting [6]), 27 ± 5%. Further, on 5HT2A(rat) [2], the EC50 (in general, the concentration at which the effect is half-maximal) is 158 nM. The maximal effect (Emax) (usually the maximal effect, on the per cent scale that the assay sets) at 5HT2A(rat) [2] was determined as 87%. Moreover, on 5HT2A(rat) [3], the IC50 (as a rule, the point on the concentration scale where inhibition reaches its midpoint) is 2.3 nM.
As to `CNC(=O)c1cc2c(ccc3cnn(C[C@H](C)N)c32)o1.O=C(O)/C=C/C(=O)O` [Example 4, 1-((S)-2-Aminopropyl)-1H-furo[2,3-g]indazole-7-carboxylic acid methyl amide fumarate], the melting point – broadly, the temperature, or range, at which the solid turns liquid – lay within 180 to 182 °C. Also, the “Percent IOP Reduction ± SEM” value in data set [1] (setting [4]) came to 13 ± 3%. Further, the “Percent IOP Reduction ± SEM” value in data set [1] (setting [5]) is given as 30 ± 4%. In addition, the “Percent IOP Reduction ± SEM” value in data set [1] (setting [6]) is recorded as 31 ± 4%. Further, at 5HT2A(rat) [2], the EC50 came to 54 nM and the Emax came to 98%. The compound also registered a 50% inhibitory concentration (IC50) on 5HT2A(rat) [3] of 0.81 nM.
As for `C[C@H](N)Cn1ncc2ccc3oc(C(=O)NCCc4cnc[nH]4)cc3c21.O=C(O)/C=C/C(=O)O` [Example 6, 1-((S)-2-Aminopropyl)-1H-furo[2,3-g]indazole-7-carboxylic acid [2-(3H-imidazol-4-yl)-ethyl]-amide fumarate], the melting point was 201 to 203 °C. On 5HT2A(rat) [2], the EC50 is 57 nM and the Emax is 95%. The same compound gave an IC50 on 5HT2A(rat) [3] of 0.66 nM.
As to `C[C@H](N)Cn1ncc2ccc3oc(C(=O)NCC(C)(C)CO)cc3c21` [Example 11, 1-((S)-2-Aminopropyl)-1H-furo[2,3-g]indazole-7-carboxylic acid (3-hydroxy-2,2-dimethyl-propyl)-amide], the figures for the “Percent IOP Reduction ± SEM” value in data set [1] (setting [4]), in data set [1] (setting [5]) and in data set [1] (setting [6]) were 10 ± 5%, 23 ± 5% and 26 ± 5%, respectively. At 5HT2A(rat) [2], a half-maximal effect (EC50) was put at 74 nM. Besides, the Emax on 5HT2A(rat) [2] turned out to be 76%. The compound further gave an IC50 on 5HT2A(rat) [3] of 1.8 nM.
In the case of `CC(=O)Nc1ccc(S(=O)(=O)NCc2cc3c(ccc4cnn(C[C@H](C)N)c43)o2)cc1` [Example 19, N-(4-{[1-((S)-2-Aminopropyl)-1H-furo[2,3-g]indazol-7-ylmethyl]-sulfamoyl}-phenyl)-acetamide], the melting point is 80 to 85 °C. Also, at 5HT2A(rat) [2], the EC50 was 131 nM and the Emax was determined as 82%. On 5HT2A(rat) [3], the IC50 worked out at 4.1 nM.
